A short description of experiment [1]: Cytotoxicity against human SPCA1 cells assessed as inhibition of cell growth. The experiment is classed as functional, cell-based.
Experiment [2] deals with SW-620. The experiment is described as follows: Cytotoxicity against human SW620 cells assessed as inhibition of cell growth. Type of experiment: functional, cell-based.
In experiment [3] the test system is HeLa. The experiment is described as follows: Antiproliferative activity against human HeLa cells assessed as cell growth inhibition. Type of experiment: functional, cell-based.
Experiment [4] concerns PC-3. Briefly: Cytotoxicity against human PC-3 cells assessed as inhibition of cell growth. Type of experiment: functional, cell-based.
The target of experiment [5] is Tyrosine-protein kinase ABL1 (Mus musculus, UniProt P00520). The experiment is described as follows: Inhibition of wild type Abl in mouse BaF3 cells. The experiment is classed as cell-based.
Experiment [6] deals with Tyrosine-protein kinase ABL1 (Mus musculus, UniProt P00520, T315I). Briefly: Inhibition of Abl T315I mutant in mouse BaF3 cells. The experiment is classed as cell-based.
The target in experiment [7] is Tyrosine-protein kinase ABL1 (Homo sapiens, UniProt P00519). The experiment is described as follows: Inhibition of wild type Abl (unknown origin).
Experiment [8] addresses Aryl hydrocarbon receptor (Homo sapiens, UniProt P35869). The experiment is described as follows: Binding affinity to AhR (unknown origin).
Experiment [9] concerns the target Carbonic anhydrase 9 (Homo sapiens, UniProt Q16790). Briefly: Inhibition of CA9 (unknown origin).
Experiment [10] concerns NUGC-3. The experiment is described as follows: Cytotoxicity against human NUGC-3 cells assessed as cell growth inhibition. Type of experiment: functional.
The subject of experiment [11] is SK-HEP1. The experiment is described as follows: Cytotoxicity against human SK-HEP1 cells assessed as cell growth inhibition. The experiment is classed as functional.
The subject of experiment [12] is MDA-MB-231. The experiment is described as follows: Cytotoxicity against human MDA-MB-231 cells assessed as cell growth inhibition. Type of experiment: functional, cell-based.
For experiment [13], the system named is KM12. Briefly: Cytotoxicity against human KM12 cells assessed as cell growth inhibition. Type of experiment: functional.
In experiment [14] the test system is K562. The experiment is described as follows: Cytotoxicity against human K562 cells. Type of experiment: functional.
Experiment [15] concerns the target Angiopoietin-1 receptor (Homo sapiens, UniProt Q02763). The experiment is described as follows: Inhibition of Tie2 (unknown origin).
The test system of experiment [16] is HCT-116. Briefly: Cytotoxicity against human HCT-116 cells assessed as inhibition of cell growth. Type of experiment: functional, cell-based.
Experiment [17] has as its system MCF7. Briefly: Cytotoxicity against human MCF7 cells assessed as inhibition of cell growth. Type of experiment: functional, cell-based.
Experiment [18] has as its target Tubulin. The experiment is described as follows: Inhibition of tubulin polymerization (unknown origin). Type of experiment: protein-complex assay, Homo sapiens.
Experiment [19] has as its system HepG2. The experiment is described as follows: Cytotoxicity against human HepG2 cells assessed as inhibition of cell growth. Type of experiment: functional, cell-based.
In experiment [20] the test system is SMMC-7721. The experiment is described as follows: Cytotoxicity against human SMMC-7721 cells assessed as cell growth inhibition. Type of experiment: functional, cell-based.
For experiment [21], the target named is T1, Prostaglandin G/H synthase 2 (Homo sapiens, UniProt P35354).
T1 sequence (P35354 whole entry): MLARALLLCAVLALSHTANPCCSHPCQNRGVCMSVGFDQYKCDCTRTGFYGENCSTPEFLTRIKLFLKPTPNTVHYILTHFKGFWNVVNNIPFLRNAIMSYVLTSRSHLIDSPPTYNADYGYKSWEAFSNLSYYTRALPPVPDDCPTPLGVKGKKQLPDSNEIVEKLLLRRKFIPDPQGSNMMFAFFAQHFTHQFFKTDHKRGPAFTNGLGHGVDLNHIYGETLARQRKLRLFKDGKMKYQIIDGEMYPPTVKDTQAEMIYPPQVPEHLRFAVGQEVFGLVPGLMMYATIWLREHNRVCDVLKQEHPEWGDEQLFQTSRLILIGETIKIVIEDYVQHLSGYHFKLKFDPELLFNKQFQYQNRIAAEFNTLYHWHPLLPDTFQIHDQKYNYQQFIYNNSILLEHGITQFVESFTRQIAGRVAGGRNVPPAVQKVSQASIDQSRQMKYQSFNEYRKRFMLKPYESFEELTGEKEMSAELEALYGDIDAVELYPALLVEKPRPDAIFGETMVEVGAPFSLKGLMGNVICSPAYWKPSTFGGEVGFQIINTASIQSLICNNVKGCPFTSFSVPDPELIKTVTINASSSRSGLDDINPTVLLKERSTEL
The experiment is described as follows: Inhibition of COX-2 (unknown origin).

Experiment [22] deals with A549. Briefly: Antiproliferative activity against human A549 cells assessed as cell growth inhibition. The experiment is classed as functional, cell-based.
The target of experiment [23] is Prostaglandin G/H synthase 1 (Homo sapiens, UniProt P23219). The experiment is described as follows: Inhibition of COX-1 (unknown origin).
In experiment [24] the test system is C6. Briefly: Cytotoxicity against rat C6 cells assessed as inhibition of cell growth. The experiment is classed as functional, cell-based.

Tyrosine-protein kinase ABL1 (Mus musculus, UniProt P00520), sequence (P00520 whole entry): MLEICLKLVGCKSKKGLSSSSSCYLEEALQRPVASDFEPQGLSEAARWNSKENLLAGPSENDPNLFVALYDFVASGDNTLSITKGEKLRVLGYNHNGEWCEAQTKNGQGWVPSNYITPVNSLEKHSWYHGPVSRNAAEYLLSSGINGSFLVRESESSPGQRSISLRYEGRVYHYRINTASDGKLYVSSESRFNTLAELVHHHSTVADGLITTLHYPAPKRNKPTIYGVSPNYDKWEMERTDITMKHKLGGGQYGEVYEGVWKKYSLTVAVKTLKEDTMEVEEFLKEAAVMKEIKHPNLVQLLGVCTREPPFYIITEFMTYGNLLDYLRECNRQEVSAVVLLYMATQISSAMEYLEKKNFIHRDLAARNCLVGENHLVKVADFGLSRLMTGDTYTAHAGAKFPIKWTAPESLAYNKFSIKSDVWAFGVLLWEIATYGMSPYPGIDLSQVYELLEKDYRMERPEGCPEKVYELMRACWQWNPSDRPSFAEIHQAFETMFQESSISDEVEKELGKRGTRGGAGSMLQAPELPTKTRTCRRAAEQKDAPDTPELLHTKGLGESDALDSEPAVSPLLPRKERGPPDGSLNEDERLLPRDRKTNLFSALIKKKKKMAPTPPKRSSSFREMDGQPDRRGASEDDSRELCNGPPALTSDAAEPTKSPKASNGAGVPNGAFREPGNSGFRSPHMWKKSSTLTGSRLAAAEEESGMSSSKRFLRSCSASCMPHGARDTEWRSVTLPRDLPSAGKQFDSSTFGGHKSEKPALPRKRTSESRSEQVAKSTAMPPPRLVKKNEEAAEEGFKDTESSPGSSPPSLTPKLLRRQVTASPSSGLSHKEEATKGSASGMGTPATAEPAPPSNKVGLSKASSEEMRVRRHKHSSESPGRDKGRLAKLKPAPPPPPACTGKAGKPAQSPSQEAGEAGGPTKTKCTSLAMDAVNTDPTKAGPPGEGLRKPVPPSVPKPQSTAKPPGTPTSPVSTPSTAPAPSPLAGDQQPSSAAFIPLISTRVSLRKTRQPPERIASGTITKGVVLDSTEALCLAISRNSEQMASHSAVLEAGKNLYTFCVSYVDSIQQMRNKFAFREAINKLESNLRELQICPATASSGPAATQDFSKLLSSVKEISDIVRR
Tyrosine-protein kinase ABL1 (Mus musculus, UniProt P00520, T315I), sequence (P00520 whole entry T315I): as the sequence (P00520 whole entry) above, with T315I counted along it
Tyrosine-protein kinase ABL1 (Homo sapiens, UniProt P00519), sequence (P00519 whole entry): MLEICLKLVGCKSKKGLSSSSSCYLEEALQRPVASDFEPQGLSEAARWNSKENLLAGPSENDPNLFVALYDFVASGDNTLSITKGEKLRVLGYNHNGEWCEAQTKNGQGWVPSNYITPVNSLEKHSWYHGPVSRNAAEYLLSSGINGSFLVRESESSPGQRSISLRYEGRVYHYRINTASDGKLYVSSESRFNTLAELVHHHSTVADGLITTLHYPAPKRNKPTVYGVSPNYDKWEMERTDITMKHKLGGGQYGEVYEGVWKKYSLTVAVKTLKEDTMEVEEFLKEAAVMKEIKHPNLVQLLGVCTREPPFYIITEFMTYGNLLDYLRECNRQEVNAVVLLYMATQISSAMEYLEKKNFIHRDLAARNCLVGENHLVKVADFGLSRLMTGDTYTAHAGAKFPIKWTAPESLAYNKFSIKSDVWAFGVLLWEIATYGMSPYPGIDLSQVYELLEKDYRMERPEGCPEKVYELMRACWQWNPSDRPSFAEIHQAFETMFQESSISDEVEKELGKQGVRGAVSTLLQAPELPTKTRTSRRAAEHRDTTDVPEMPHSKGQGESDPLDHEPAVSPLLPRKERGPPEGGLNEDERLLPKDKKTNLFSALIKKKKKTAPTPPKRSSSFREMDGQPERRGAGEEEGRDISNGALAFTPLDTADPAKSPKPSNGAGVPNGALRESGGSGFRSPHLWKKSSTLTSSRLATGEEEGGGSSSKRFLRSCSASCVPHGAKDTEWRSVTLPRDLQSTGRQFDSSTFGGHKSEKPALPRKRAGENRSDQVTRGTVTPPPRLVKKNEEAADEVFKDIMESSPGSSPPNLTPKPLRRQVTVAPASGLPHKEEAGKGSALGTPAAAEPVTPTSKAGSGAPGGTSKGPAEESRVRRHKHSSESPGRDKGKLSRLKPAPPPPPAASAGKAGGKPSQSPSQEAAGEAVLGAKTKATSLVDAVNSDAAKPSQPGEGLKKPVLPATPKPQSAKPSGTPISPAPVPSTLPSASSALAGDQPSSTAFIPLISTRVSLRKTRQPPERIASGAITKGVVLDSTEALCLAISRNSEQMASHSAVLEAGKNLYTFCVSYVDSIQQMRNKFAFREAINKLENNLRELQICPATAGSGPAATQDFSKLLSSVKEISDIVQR
Angiopoietin-1 receptor, sequence (Q02763 whole entry): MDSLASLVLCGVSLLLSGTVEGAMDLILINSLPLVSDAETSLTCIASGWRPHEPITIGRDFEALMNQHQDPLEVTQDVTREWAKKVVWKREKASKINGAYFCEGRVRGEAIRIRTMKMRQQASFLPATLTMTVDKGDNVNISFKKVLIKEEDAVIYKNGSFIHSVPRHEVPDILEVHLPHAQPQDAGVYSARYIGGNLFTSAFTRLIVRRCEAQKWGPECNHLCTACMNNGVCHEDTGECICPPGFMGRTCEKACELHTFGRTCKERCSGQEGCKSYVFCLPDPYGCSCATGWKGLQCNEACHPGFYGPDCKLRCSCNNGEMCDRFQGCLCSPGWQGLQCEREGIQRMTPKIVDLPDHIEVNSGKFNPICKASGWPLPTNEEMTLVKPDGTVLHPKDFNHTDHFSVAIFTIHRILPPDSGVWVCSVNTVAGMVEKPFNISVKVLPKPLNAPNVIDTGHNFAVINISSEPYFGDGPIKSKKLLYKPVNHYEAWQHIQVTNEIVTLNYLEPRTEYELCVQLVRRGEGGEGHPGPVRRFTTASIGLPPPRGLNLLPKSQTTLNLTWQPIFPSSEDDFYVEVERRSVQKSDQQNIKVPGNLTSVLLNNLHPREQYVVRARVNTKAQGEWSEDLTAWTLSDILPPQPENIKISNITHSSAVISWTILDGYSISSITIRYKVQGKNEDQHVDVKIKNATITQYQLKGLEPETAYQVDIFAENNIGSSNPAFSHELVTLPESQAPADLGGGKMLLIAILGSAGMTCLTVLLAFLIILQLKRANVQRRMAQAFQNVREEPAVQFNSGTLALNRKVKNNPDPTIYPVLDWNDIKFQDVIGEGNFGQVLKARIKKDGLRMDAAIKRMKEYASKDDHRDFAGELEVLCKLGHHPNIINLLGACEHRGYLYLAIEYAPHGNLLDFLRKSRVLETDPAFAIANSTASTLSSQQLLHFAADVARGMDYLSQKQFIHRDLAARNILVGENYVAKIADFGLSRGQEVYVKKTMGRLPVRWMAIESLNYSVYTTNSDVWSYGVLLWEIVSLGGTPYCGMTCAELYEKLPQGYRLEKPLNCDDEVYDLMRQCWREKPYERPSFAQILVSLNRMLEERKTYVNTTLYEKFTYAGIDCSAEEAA
Prostaglandin G/H synthase 1, sequence (P23219 whole entry): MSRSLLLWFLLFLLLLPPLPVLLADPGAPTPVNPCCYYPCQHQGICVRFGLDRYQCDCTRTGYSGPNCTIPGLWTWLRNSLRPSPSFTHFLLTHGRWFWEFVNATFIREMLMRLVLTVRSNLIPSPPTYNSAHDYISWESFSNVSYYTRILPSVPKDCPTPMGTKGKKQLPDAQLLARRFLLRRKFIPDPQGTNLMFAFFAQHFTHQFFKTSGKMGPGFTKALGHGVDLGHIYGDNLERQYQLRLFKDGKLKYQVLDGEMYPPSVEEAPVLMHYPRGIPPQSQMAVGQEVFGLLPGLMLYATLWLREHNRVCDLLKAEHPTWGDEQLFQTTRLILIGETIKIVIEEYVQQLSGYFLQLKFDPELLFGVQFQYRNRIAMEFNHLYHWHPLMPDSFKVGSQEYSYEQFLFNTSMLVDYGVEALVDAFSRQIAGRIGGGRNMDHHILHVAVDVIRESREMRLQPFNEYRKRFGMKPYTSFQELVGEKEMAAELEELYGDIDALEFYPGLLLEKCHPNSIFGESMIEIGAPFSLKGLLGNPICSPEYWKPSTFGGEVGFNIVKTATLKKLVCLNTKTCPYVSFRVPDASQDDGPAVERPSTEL
Aryl hydrocarbon receptor, sequence (P35869 whole entry): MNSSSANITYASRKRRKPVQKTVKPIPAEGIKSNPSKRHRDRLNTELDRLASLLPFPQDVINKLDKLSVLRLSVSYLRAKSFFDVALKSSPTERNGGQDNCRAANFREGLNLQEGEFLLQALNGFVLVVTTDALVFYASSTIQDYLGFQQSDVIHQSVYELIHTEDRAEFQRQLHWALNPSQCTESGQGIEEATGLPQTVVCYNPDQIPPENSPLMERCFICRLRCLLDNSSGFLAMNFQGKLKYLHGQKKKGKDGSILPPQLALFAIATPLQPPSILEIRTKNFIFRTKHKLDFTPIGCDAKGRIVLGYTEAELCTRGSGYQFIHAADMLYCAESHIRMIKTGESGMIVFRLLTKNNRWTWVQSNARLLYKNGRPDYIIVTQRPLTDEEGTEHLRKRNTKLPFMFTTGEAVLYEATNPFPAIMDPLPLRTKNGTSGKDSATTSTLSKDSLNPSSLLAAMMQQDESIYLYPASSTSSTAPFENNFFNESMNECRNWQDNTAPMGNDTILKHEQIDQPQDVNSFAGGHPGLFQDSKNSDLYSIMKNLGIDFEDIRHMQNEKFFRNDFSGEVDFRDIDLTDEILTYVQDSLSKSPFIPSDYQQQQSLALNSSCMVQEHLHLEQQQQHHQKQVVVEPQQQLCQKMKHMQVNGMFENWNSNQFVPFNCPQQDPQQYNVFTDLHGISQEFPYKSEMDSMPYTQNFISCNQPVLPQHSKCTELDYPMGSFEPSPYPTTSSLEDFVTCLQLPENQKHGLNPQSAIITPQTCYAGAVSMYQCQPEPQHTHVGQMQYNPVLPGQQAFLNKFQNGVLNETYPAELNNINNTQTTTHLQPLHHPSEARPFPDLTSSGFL

Regarding `O=C(CSc1nc2ccc(NC(=O)CCl)cc2s1)NCc1ccccc1`, the IC50 – broadly, the concentration that inhibits the measured activity by half – is 3890 nM in experiment [1], 5120 nM in [2], 5130 nM in [3] and 6580 nM in experiment [4].

Turning to `CCNC(=O)Nc1nc2ccc(-c3ccccc3OC)cc2s1`, the IC50 in experiment [5] worked out at 3570 nM; in experiment [6], 2140 nM; in experiment [7] it was 0.06 nM.

In the case of `COc1ccccc1-c1ccc2nc(NC(=O)NCCO)sc2c1`, the IC50 in experiment [5] amounted to 89 nM; in experiment [6], 140 nM.

For the molecule `COc1ccccc1-c1ccc2nc(NC(=O)NCCN3CCN(C)CC3)sc2c1`, the values for the IC50 in experiment [5] and in [6] were 46 nM and 78 nM, respectively.

In experiment [8], `COc1ccc(-c2nc3cc(F)ccc3s2)cc1OC` gave an IC50 of 25 nM.

As to `CCCC(Sc1nc2cc(Cl)ccc2s1)C(=O)NS(=O)(=O)c1ccc(OC)cc1` (configuration not stated), the IC50 in [9] turned out to be 490 nM.

For `Cc1cc(C)c2sc(NC(=O)c3ccc(C(F)(F)F)cc3)nc2c1`, the GI50 in experiment [10], in [11] and in [12] was 290 nM throughout.

As to `O=C(Nc1nc2ccc([N+](=O)[O-])cc2s1)c1ccc(C(F)(F)F)cc1`, the GI50 in experiment [10], in experiment [11] and in experiment [12] was 860 nM in each case.

On to `Cc1cc(C)c2sc(NC(=O)c3ccc(C#N)cc3)nc2c1`, for which the GI50 in [10], in [11] and in experiment [12] was 290 nM throughout.

With `CCN1CCN(Cc2ccc(NC(=O)Nc3nc4ccc(Oc5ccnc(C(=O)NC)c5)cc4s3)cc2C(F)(F)F)CC1`, the values for the GI50 in experiment [13] and in experiment [14] were 19 nM and 51.4 nM, respectively. For the same molecule, the 50% inhibitory concentration (IC50) in experiment [15] is 0.82 nM.

`Nc1ccc2sc(NC(=O)c3sc4ccccc4c3Cl)nc2c1`: the IC50 in experiment [16] was 4000 nM; in [17] it was 40 nM.

As to `O=C(CN1CCCCC1)Nc1ccc(-c2nc3ccccc3s2)cc1`, the IC50 in [17] was found to be 10 nM; in experiment [12], 8 nM.

The molecule `COc1ccc(CN(C(=O)CSc2nc3ccccc3s2)c2cc(OC)c(OC)c(OC)c2)cc1O` showed an IC50 in [18] of 1900 nM.

For `O=C(CN1CCOCC1)Nc1ccc(-c2nc3ccccc3s2)cc1`, the IC50 in experiment [17] was found to be 10 nM; in experiment [12], 8 nM.

On to `CN1CCN(CC(=O)Nc2ccc(-c3nc4ccccc4s3)cc2)CC1`, for which the IC50 in [17] was found to be 10 nM; in [12], 8 nM.

For `COc1cccc2sc(NC(=O)c3ccc(C)cc3)nc12`, the GI50 in experiment [10], in experiment [11] and in [12] was 860 nM in each case.

Turning to `Cc1cc(C)c2sc(NC(=O)c3ccc([N+](=O)[O-])cc3)nc2c1`, the GI50 in experiment [10], in experiment [11] and in experiment [12] was 290 nM each time.

Take `Cc1ccc2nc(N/N=C/c3cccnc3Nc3ccc(Cl)cc3)sc2c1`: the IC50 in experiment [17] turned out to be 1030 nM.

As to `N=C(N)N/N=C/c1cn(-c2nc3ccc(Oc4ccc(F)cc4)cc3s2)nc1-c1ccccc1`, the IC50 in experiment [19] (Homo sapiens, HepG2, read-out: IC50) was 3750 nM; in [20] it was 2310 nM; in [17], 2230 nM; in experiment [12] it was 2410 nM.

As to `Cc1nc(SCC(=O)Nc2nc3ccc(Cl)cc3s2)n(Nc2ccc([N+](=O)[O-])cc2)c1C`, in experiment [19] (hepg2), the IC50 was more than 500 µg/mL.

On to `CC1=NNC(=O)/C1=N/Nc1cccc(-c2nc3ccccc3s2)c1`, for which the IC50 in experiment [21] is 100 nM; in [17] it was more than 25000 nM; in experiment [22], more than 25000 nM; in experiment [23], 9560 nM.

For `COc1ccc2nc(NC(=O)CSc3nc(C)c(C)n3Nc3ccc([N+](=O)[O-])cc3)sc2c1`, the half-inhibitory concentration (IC50) in experiment [19] (hepg2) and in experiment [24] was more than 500 µg/mL throughout.

The values above are taken from ChEMBL document CHEMBL5230113, “2-substituted benzothiazoles as antiproliferative agents: Novel insights on structure-activity relationships” (Eur J Med Chem, 2020).
